# From US20250333437A1, “USE OF NON-INFORMAT[…] CHAINS TO MODIFY THE […] PEPTIDES” (priority 2022, published 2025)
# Test: Solubility of the poison ivy antigen in water and ethanol
# Assay type: physicochemical
# Description: The present inventors discovered the phenomenon of tissue deposition by precipitation (TDBP) with an allergy vaccine that was a catechol and naturally had the requisite solubility properties to achieve TDBP. In particular, the poison ivy antigen that induced tolerance when precipitated in muscle by precipitation is a catechol which is naturally insoluble in water and for which effective doses are soluble in small volumes of the pharmaceutically acceptable water-miscible solvent ethanol. The inventors termed the phenomenon vaccine delivery by precipitation (VDBP) which is a preferred embodiment of TDBP and they interpreted its probable mechanism of action.
# FIG. 1 is a graphic representation of the function of the adaptive immune system in the skin, reproduced from Teunissen on intradermal immunization. It is a cartoon of how immunomodulation takes place. […] These recognize and take up molecules or particles of an antigen which they then present to naive T lymphocytes which then mature along one of what are shown here as seven different pathways. The location is the cortex of a lymph node. Dendritic cells (DC's) from either homeostatic or inflamed tissue present antigenic epitopes in their MHC Class Il molecular grooves, to naive T lymphocytes (Tn). […]
substance,measurement,setting,value
urushiol [poison ivy antigen],solubility in ethanol,effective doses in small volumes of ethanol,soluble
same,solubility in water,water,insoluble
